Experimental data from US20040185457A1, “Method for detecting dna polymerisation” (priority 2001, published 2004).

Assays:
Assay type in all cases: biochemical
[1] = biological target: T1, Photinus pyralis luciferase (Photinus pyralis, UniProt P08659); test: Bioluminescence of nucleotides with firefly luciferase in pyrophosphate assay buffer (ELIDA reagent); conditions: for wavelength of maximal light emission: pH 7.8
T1 construct: purchased Promega
Method: Pyrophosphate assay buffer (PAB) was made up as follows:
50 μl of PAB was aliquoted into two wells of a 96 well plate. To one sample was added 1 μl of 0.1 mM sodium pyrophosphate; to the other was added 1 μl of 2 mM dATP. The resulting light emission was observed using a Syngene light-box with a black and white CCD camera integrating the signal over 5 seconds. […] The amount of dATP added is equivalent to ⅕ the amount used in a standard 50 μl PCR reaction.
A green filter was placed in front of the lens of the CCD camera and the sample above was observed once more.

Taq polymerase = biological target: T2, Taq polymerase (Thermus aquaticus, UniProt P19821); test: PCR using the dATP analogue, product seen by agarose gel electrophoresis
T2 construct: purchased Roche
Method: A 50 μl PCR reaction contained the following:
The sequences of primers 1 and 2 and the test plasmid are given in SEQ ID Nos. 1, 2 and 3, respectively. The size of the expected PCR product was 158 bp.
Taq polymerase was added to the sample after heating to 95° for 30 seconds. The following cycling parameters were implemented on a Perkin-Elmer GeneAmp PCR system 2400.
10 μl of the resulting PCR reaction was loaded onto a […] containing ethidium bromide alongside a molecular weight marker. The gel was run at 60V for 50 minutes and then visualised under a transilluminator.

luciferase [2] = biological target: T3, luciferase (Photinus pyralis, UniProt P08659); test: Stability of light emission from ELIDA assays of PCR reactions; conditions: four consecutive readings over 1 minute; for light emission over time: 5 and 35 cycle PCR samples
Method: PCR reactions were set up and run as in Example 5. The analysis of each PCR sample was initiated by mixing 1 μl of the PCR reaction with 20 μl of ELIDA assay buffer. The light emitted from the sample was then measured with a Labsystems Luminoscan Ascent luminometer in a series of four consecutive light readings over a period of 1 minute. Each light reading represented the light emission from the sample integrated over a ten-second interval (using the machine's default PMT voltage).
This effect becomes greater with the number of PCR cycles. […] As a result, the magnitude of the differential between the readings for 5 and 35 cycles over the four readings taken, is almost constant (only 5% difference).

luciferase [3] = biological target: T3, luciferase; test: Signal:background ratio in ELIDA assays of PCR reactions; conditions: unreacted PCR mix vs 30 cycles, compared to dATP
Method: PCR reactions were set up as in Example 2 except that only 0.5 pg of the test plasmid pPw601 a was used. Further, the PCR reactions contained either d-α-SATP or dATP. The light emission from an ELIDA assay of unreacted PCR mixes containing either d-α-SATP or dATP was measured as in Example 6. A further ELIDA assay was performed on the same samples after they had completed 30 cycles of a PCR reaction (and had produced the same amount of amplicon as judged by agarose gel analysis). The ratio of the light emission from the unreacted PCR mix to the reacted PCR mix is shown in FIG. 3 (showing signal:background ratio).

T1 sequence (P08659 whole entry): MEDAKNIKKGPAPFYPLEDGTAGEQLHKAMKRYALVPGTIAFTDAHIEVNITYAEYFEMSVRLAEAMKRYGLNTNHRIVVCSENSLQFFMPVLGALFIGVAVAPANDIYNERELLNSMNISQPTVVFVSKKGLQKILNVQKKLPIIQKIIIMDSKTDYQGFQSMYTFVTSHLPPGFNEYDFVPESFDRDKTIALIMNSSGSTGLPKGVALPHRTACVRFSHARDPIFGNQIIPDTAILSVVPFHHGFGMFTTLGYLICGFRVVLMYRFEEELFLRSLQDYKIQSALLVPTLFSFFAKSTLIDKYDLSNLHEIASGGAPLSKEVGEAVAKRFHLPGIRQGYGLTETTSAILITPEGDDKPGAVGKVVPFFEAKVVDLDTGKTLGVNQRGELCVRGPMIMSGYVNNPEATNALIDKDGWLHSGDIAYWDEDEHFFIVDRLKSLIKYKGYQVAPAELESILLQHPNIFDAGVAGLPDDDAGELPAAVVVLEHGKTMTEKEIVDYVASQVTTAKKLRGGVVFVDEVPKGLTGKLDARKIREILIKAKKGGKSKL
T3 sequence (P08659 whole entry): as above
T2 sequence (P19821 whole entry): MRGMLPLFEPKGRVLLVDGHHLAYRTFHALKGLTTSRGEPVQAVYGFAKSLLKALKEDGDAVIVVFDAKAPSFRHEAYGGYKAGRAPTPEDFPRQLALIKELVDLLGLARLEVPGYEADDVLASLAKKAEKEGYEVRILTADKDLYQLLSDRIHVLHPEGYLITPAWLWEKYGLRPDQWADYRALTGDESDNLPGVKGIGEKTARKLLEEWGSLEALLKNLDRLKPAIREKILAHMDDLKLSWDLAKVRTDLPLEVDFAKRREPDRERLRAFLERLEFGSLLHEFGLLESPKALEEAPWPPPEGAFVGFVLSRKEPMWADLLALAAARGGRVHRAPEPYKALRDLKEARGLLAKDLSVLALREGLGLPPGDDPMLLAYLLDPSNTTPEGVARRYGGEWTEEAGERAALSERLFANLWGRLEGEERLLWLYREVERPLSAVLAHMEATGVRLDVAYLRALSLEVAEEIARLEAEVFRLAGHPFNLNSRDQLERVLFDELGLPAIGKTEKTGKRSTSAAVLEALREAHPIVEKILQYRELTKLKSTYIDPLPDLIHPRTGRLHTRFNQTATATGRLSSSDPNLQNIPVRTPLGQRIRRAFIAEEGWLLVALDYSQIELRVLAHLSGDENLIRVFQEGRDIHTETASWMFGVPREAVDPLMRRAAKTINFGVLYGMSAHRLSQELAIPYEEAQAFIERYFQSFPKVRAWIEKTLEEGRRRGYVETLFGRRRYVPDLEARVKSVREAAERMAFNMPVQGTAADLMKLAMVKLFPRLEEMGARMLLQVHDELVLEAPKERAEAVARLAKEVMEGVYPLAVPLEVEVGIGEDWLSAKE

Row | Structure (SMILES) | wavelength of maximal light emission [1] | substrate quality for luciferase relative to dATP ([1]; direct reaction with luciferase) | PCR product generated (gel) (Taq polymerase; used instead of dATP, 30 cycles) | difference in the differential between the readings for 5 and 35 cycles over the four readings (luciferase [2]) | light emission over time (luciferase [2]) | signal:background ratio (luciferase [3]) | light emission on addition to pyrophosphate assay buffer ([1]; 1 μl of 2 mM in 50 μl PAB, CCD camera, 5 seconds) | PCR product generated (gel) (Taq polymerase; 1/10th the usual concentration of 0.2 mM)
1 | Nc1ncnc2c1ncn2[C@@H]1O[C@H](COP(=O)(O)OP(=O)(O)OP(=O)(O)O)[C@@H](O)[C@H]1O [ATP] | 550 nm | – | – | – | – | – | – | –
2 | Nc1ncnc2c1ncn2[C@H]1C[C@H](O)[C@@H](COP(O)(=S)OP(=O)(O)OP(=O)(O)O)O1 (stereo partly drawn) [d-α-SATP] | – | approximately one-hundred-fold poorer substrate for luciferase than dATP | a PCR product is generated | 5% | close to constant | considerably improves the signal:background ratio | – | –
3 | Nc1ncnc2c1ncn2[C@H]1C[C@H](O)[C@@H](COP(=O)(O)OP(=O)(O)OP(=O)(O)O)O1 [dATP] | 620 nm | – | – | – | significant decay in light emission over time | – | significant light emission | no PCR product is detected
